# System: human umbilical vein endothelial cells (HUVEC) expressing GFP and normal human dermal fibroblasts (NHDF)
# Test: Angiogenesis assay (vascular tube formation, HUVEC/NHDF co-culture)
# Format: cell-based
# Conditions: VEGF 4 ng/ml; 100 μM suramin positive control
# Procedure: In the vascular tube formation assay, a co-culture system of human umbilical vein endothelial cells (HUVEC) expressing GFP and normal human dermal fibroblasts (NHDF) was used. For cell seeding on day 0, one cryogenic vial of NHDF cells was thawed and resuspended in 12 ml of complete seeding medium. Then, 100 μl of this solution was added per well of a 96-well plate. The cells were incubated at room temperature for 1 hour. Then, 1 cryogenic vial of HUVECs was thawed and resuspended in 12 ml of complete seeding medium. HUVEC (100 μL per well) were seeded into the same plate as NHDFs. The cells were incubated at room temperature for another hour. The plate was then examined in an IncuCyte ZOOM and scanned using the “FOIL” scan type. After 24 hours, the culture medium was replaced with 150 μl of growth medium.
# Forty-eight hours after seeding, the cells were treated with VEGF at 4 ng/ml and the test compounds at eight concentrations.
# Serial dilutions of the compounds were prepared using assay media containing VEGF up to the final concentrations in FIG. 3. Then, 150 μl of medium containing the vNARs were added. In untreated wells, media without VEGF were added. For wells without compound, media with VEGF was added. […]
# The formation of vessel tubes by fluorescently-labeled HUVECs was measured using live-cell imaging, and the effects of the vNARs on this process were assessed.
smiles,measurement,value
"Cc1ccc(C(=O)Nc2ccc(S(=O)(=O)O)c3cc(S(=O)(=O)O)cc(S(=O)(=O)O)c23)cc1NC(=O)c1cccc(NC(=O)Nc2cccc(C(=O)Nc3cc(C(=O)Nc4ccc(S(=O)(=O)O)c5cc(S(=O)(=O)O)cc(S(=O)(=O)O)c45)ccc3C)c2)c1 [suramin, reference compound]",inhibition of VEGF-increased tube branching,inhibited

# From patent US11155612B2, “vNAR antibody which binds VEGF for use in dogs or cats” (CENTRO DE INVESTIGACIÓN CIENTÍFICA Y DE EDUCACIÓN SUPERIOR …, priority 2017, dated 2021)
